As usually defined, the pIC50 is −log10 of the IC50, conventionally taken in molar units.

Each structure is given as a SMILES string. pIC50: −log10 of the molar value. Bounds are passed on as bounds.

In this test the target is T1, recombinant human KLK5 (Homo sapiens, UniProt Q9Y337).
T1 construct: purchased Novoprotein or R&D Systems C415 or 1108-SE
T1 sequence (Q9Y337 23-293): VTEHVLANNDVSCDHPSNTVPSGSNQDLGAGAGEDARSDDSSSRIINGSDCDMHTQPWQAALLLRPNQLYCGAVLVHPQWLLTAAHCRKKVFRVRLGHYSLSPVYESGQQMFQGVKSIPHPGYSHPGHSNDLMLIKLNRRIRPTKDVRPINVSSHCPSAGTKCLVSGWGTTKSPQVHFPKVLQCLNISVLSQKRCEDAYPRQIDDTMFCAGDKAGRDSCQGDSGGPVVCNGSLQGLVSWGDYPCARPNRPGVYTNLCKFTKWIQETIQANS
The test can be described thus: Kallikrein (KLK) 5 enzymatic assay (Boc-VPR-AMC fluorogenic substrate). It counts as biochemical. The following applies: recombinant human KLK5 0.1 μg/well, Boc-VPR-AMC 100 μM, pH 7.5, room temperature, 1% DMSO; tested a minimum of three times. The gist of the method: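 Fluorogenic rate assay at pH 7.5 (0.1 M NaH2PO4, 1% DMSO, room temperature), run at least three times per compound. Compound was premixed with 0.1 μg/well recombinant human KLK5 before adding 100 μM Boc-VPR-AMC; AMC release was read at ex 380/em 460 nm, and IC50 derived from inhibition of rate vs DMSO control.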
Turning to `Cc1ccc2c(N)nccc2c1-c1ccc2c(c1)c(COc1ccccc1CC(=O)O)nn2C(C)C` [Compound 78d, 2-(2-((5-(1-amino-6-methylisoquinolin-5-yl)-1-isopropyl-1H-indazol-3-yl)methoxy)phenyl)acetic acid], the pIC50 was 5.00 to 6.00.
The figure for `CC(C)n1nc(COc2ccccc2CC(=O)O)c2cc(-c3ccc4c(c3)[C@H](N)CO4)ccc21` [Compound 79c, (S)-2-(2-((5-(3-amino-2,3-dihydrobenzofuran-5-yl)-1-isopropyl-1H-indazol-3-yl)methoxy)phenyl)acetic acid] is < 5.00; for `CC(C)n1nc(COc2ccccc2CC(=O)O)c2cc(-c3ccnc4c(N)nccc34)ccc21` [Compound 80d, 2-(2-((5-(8-amino-1,7-naphthyridin-4-yl)-1-isopropyl-1H-indazol-3-yl)methoxy)phenyl)acetic acid] it is 5.00 to 6.00.
In the case of `COc1c(-c2ccc3c(c2)c(COc2ccccc2CC(=O)O)nn3C(C)C)ccnc1C(=N)N` [Compound 81d, 2-(2-((5-(2-carbamimidoyl-3-methoxypyridin-4-yl)-1-isopropyl-1H-indazol-3-yl)methoxy)phenyl)acetic acid] it was > 6.00; in that of `COc1cc(C(=N)N)cc(-c2ccc3c(c2)c(COc2ccccc2CC(=O)O)nn3C(C)C)c1` [Compound 82e, 2-(2-((5-(3-carbamimidoyl-5-methoxyphenyl)-1-isopropyl-1H-indazol-3-yl)methoxy)phenyl)acetic acid], < 5.00.
As to `COc1ccc(C(=N)N)cc1-c1ccc2c(c1)c(COc1ccccc1CC(=O)O)nn2C(C)C` [Compound 83e, 2-(2-((5-(5-carbamimidoyl-2-methoxyphenyl)-1-isopropyl-1H-indazol-3-yl)methoxy)phenyl)acetic acid], the pIC50 was 5.00 to 6.00.
As for `COc1c(C(=N)N)cccc1-c1ccc2c(c1)c(COc1ccccc1CC(=O)O)nn2C(C)C` [Compound 84f, 2-(2-((5-(3-carbamimidoyl-2-methoxyphenyl)-1-isopropyl-1H-indazol-3-yl)methoxy)phenyl)acetic acid], the pIC50 is > 6.00.
In the case of `CC(C)n1nc(COc2ccccc2CC(=O)O)c2cc(-c3cccc(-c4cn[nH]c4)c3)ccc21` [Compound 85c, 2-(2-((5-(3-(1H-pyrazol-4-yl)phenyl)-1-isopropyl-1H-indazol-3-yl)methoxy)phenyl)acetic acid] it was < 5.00.
The figure for `CC(C)(C)OC(=O)N1CCC(n2nc(COc3ccccc3CC(=O)O)c3cc(-c4cccc5c(N)nccc45)ccc32)C1` (stereo not drawn) [Compound 86h, 2-(2-((5-(1-aminoisoquinolin-5-yl)-1-(1-(tert-butoxycarbonyl)pyrrolidin-3-yl)-1H-indazol-3-yl)methoxy)phenyl)acetic acid] is > 6.00; for `CC(C)(C)OC(=O)N1CCC(n2nc(COc3ccccc3CC(=O)O)c3cc(-c4ccc5ccnc(N)c5c4)ccc32)C1` (stereo not drawn) [Compound 87c, 2-(2-((5-(1-aminoisoquinolin-7-yl)-1-(1-(tert-butoxycarbonyl)pyrrolidin-3-yl)-1H-indazol-3-yl)methoxy)phenyl)acetic acid] it is > 6.00; for `Nc1nccc2c(-c3ccc4c(c3)c(COc3ccccc3CC(=O)O)nn4CC3CCOC3)cccc12` (stereo not drawn) [Compound 88h, 2-(2-((5-(1-aminoisoquinolin-5-yl)-1-((tetrahydrofuran-3-yl)methyl)-1H-indazol-3-yl)methoxy)phenyl)acetic acid] it is > 6.00.
In the case of `Nc1nccc2ccc(-c3ccc4c(c3)c(COc3ccccc3CC(=O)O)nn4CC3CCOC3)cc12` (stereo not drawn) [Compound 89b, 2-(2-((5-(1-aminoisoquinolin-7-yl)-1-((tetrahydrofuran-3-yl)methyl)-1H-indazol-3-yl)methoxy)phenyl)acetic acid] it was > 6.00; in that of `Nc1nccc2c(-c3ccc4c(c3)c(COc3ccccc3CC(=O)O)nn4C3CCNC3)cccc12` (stereo not drawn) [Compound 90a, 2-(2-((5-(1-aminoisoquinolin-5-yl)-1-(pyrrolidin-3-yl)-1H-indazol-3-yl)methoxy)phenyl)acetic acid], > 6.00.
As to `Nc1nccc2ccc(-c3ccc4c(c3)c(COc3ccccc3CC(=O)O)nn4C3CCNC3)cc12` (stereo not drawn) [Compound 91a, 2-(2-((5-(1-aminoisoquinolin-7-yl)-1-(pyrrolidin-3-yl)-1H-indazol-3-yl)methoxy)phenyl)acetic acid], the pIC50 was > 6.00.
In the case of `Nc1nccc2c(-c3ccc4c(c3)c(COc3ccccc3CC(=O)O)nn4C3CCCCO3)cccc12` (stereo not drawn) [Compound 92b, 2-(2-((5-(1-aminoisoquinolin-5-yl)-1-(tetrahydro-2H-pyran-2-yl)-1H-indazol-3-yl)methoxy)phenyl)acetic acid] it was > 6.00; in that of `Nc1nccc2ccc(-c3ccc4c(c3)c(COc3ccccc3CC(=O)O)nn4C3CCCCO3)cc12` (stereo not drawn) [Compound 93b, 2-(2-((5-(1-aminoisoquinolin-7-yl)-1-(tetrahydro-2H-pyran-2-yl)-1H-indazol-3-yl)methoxy)phenyl)acetic acid], > 6.00; in that of `Cc1cccc(OCc2nn(CC3CCOC3)c3ccc(-c4cccc5c(N)nccc45)cc23)c1CC(=O)O` (stereo not drawn) [Compound 94e, 2-(2-((5-(1-aminoisoquinolin-5-yl)-1-((tetrahydrofuran-3-yl)methyl)-1H-indazol-3-yl)methoxy)-6-methylphenyl)acetic acid], > 6.00.
Turning to `Cc1cccc(OCc2nn(CC3CCOC3)c3ccc(-c4ccc5ccnc(N)c5c4)cc23)c1CC(=O)O` (stereo not drawn) [Compound 95b, 2-(2-((5-(1-aminoisoquinolin-7-yl)-1-((tetrahydrofuran-3-yl)methyl)-1H-indazol-3-yl)methoxy)-6-methylphenyl)acetic acid], the pIC50 is > 6.00.
Consider `N=C(N)c1cccc(-c2ccc3c(c2)c(COc2ccccc2CC(=O)O)nn3C2CCOC2)c1` (stereo not drawn) [Compound 96g, 2-(2-((5-(3-carbamimidoylphenyl)-1-(tetrahydrofuran-3-yl)-1H-indazol-3-yl)methoxy)phenyl)acetic acid], for which the pIC50 was > 6.00.
The figure for `Nc1nccc2c(-c3ccc4[nH]nc(COc5ccccc5CC(=O)O)c4c3)cccc12` [Compound 97a, 2-(2-((5-(1-aminoisoquinolin-5-yl)-1H-indazol-3-yl)methoxy)phenyl)acetic acid] is > 6.00; for `Nc1nccc2ccc(-c3ccc4[nH]nc(COc5ccccc5CC(=O)O)c4c3)cc12` [Compound 98a, 2-(2-((5-(1-aminoisoquinolin-7-yl)-1H-indazol-3-yl)methoxy)phenyl)acetic acid] it is > 6.00.
In the case of `CC(C)n1nc(COc2ccccc2CC(=O)O)c2cc(-c3ccc4c(N)nccc4c3)ccc21` [Compound 99c, 2-(2-((5-(1-aminoisoquinolin-6-yl)-1-isopropyl-1H-indazol-3-yl)methoxy)phenyl)acetic acid] it was 5.00 to 6.00; in that of `CC(C)n1nc(COc2ccccc2CC(=O)O)c2cc(-c3ccc4ccnc(N)c4c3)ccc21` [Compound 100b, 2-(2-((5-(1-aminoisoquinolin-7-yl)-1-isopropyl-1H-indazol-3-yl)methoxy)phenyl)acetic acid], > 6.00; in that of `COc1ccc(CC(=O)O)c(OCc2nn(C)c3ccc(-c4cccc(C(=N)N)c4)cc23)c1` [Compound 101b, 2-(2-((5-(3-carbamimidoylphenyl)-1-methyl-1H-indazol-3-yl)methoxy)-4-methoxyphenyl)acetic acid], > 6.00.
The figure for `CC(C)n1nc(COc2ccccc2CC(=O)O)c2cc(-c3ccc4onc(N)c4c3)ccc21` [Compound 102c, 2-(2-((5-(3-aminobenzo[d]isoxazol-5-yl)-1-isopropyl-1H-indazol-3-yl)methoxy)phenyl)acetic acid] is 5.00 to 6.00; for `Cc1ccc(CC(=O)O)c(OCc2nn(C(C)C)c3ccc(-c4cccc(C(=N)N)c4)cc23)c1` [Compound 103c, 2-(2-((5-(3-carbamimidoylphenyl)-1-isopropyl-1H-indazol-3-yl)methoxy)-4-methylphenyl)acetic acid] it is > 6.00; for `Cc1ccc(CC(=O)O)c(OCc2nn(C)c3ccc(-c4cccc(C(=N)N)c4)cc23)c1` [Compound 104d, 2-(2-((5-(3-carbamimidoylphenyl)-1-methyl-1H-indazol-3-yl)methoxy)-4-methylphenyl)acetic acid] it is > 6.00.
Take `CC(C)n1nc(COc2ccccc2CC(=O)O)c2cc(-c3ccc4nc(N)oc4c3)ccc21` [Compound 105c, 2-(2-((5-(2-aminobenzo[d]oxazol-6-yl)-1-isopropyl-1H-indazol-3-yl)methoxy)phenyl)acetic acid]: the pIC50 was < 5.00.
The figure for `Nc1nccc2c(-c3cc(-c4ccoc4)c4c(c3)c(COc3ccccc3CC(=O)O)nn4C3CCCCO3)cccc12` (stereo not drawn) [Compound 106g, 2-(2-((5-(1-aminoisoquinolin-5-yl)-7-(furan-3-yl)-1-(tetrahydro-2H-pyran-2-yl)-1H-indazol-3-yl)methoxy)phenyl)acetic acid] is > 6.00; for `Nc1nccc2c(-c3cc(NCC4CC4)c4c(c3)c(COc3ccccc3CC(=O)O)nn4C3CCCCO3)cccc12` (stereo not drawn) [Compound 107d, 2-(2-((5-(1-aminoisoquinolin-5-yl)-7-((cyclopropylmethyl)amino)-1-(tetrahydro-2H-pyran-2-yl)-1H-indazol-3-yl)methoxy)phenyl)acetic acid] it is > 6.00.

Values taken from US20240239752A1, “BICYCLIC HETEROAROMATIC INHIBITORS OF KLK5” (BioCryst Pharmaceuticals, Inc., priority 2021, published 2024).
